Laboratory results taken from ChEMBL document CHEMBL1201862, “PubChem BioAssay data set” (2004).
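Protocol summary: plate cells (96-well), add compound at 5 concentrations, incubate 48 h, interpolate endpoints linearly. Here, GI50 denotes the concentration required for 50% inhibition of growth.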 Active and inactive are the calls of the source. No stated cut-off is given here; in the data, active = GI50 up to about 1.1 µM and inactive = higher.

What was measured:
Test in all cases: inhibition of tumour cell growth, NCI panel, 48 h
A549 = tested on: A549
IGROV-1 = tested on: IGROV-1
K562 = tested on: K562
LOX IMVI = tested on: LOX IMVI
M14 = tested on: M14
MDA-N = tested on: MDA-N
NCI-H23 = tested on: NCI-H23
OVCAR-3 = tested on: OVCAR-3
OVCAR-8 = tested on: OVCAR-8
SF-539 = tested on: SF-539
SNB-19 = tested on: SNB-19
SR = tested on: SR
TK-10 = tested on: TK-10
U-251 = tested on: U-251
UACC-62 = tested on: UACC-62
UO-31 = tested on: UO-31
HCC 2998 = tested on: HCC 2998
SF-268 = tested on: SF-268
SNB-75 = tested on: SNB-75

Compound	GI50 (A549)	GI50 (IGROV-1)	GI50 (K562)	GI50 (LOX IMVI)	GI50 (M14)	GI50 (MDA-N)	GI50 (NCI-H23)	GI50 (OVCAR-3)	GI50 (OVCAR-8)	GI50 (SF-539)	GI50 (SNB-19)	GI50 (SR)	GI50 (TK-10)	GI50 (U-251)	GI50 (UACC-62)	GI50 (UO-31)	GI50 (HCC 2998)	GI50 (SF-268)	GI50 (SNB-75)
CC(=O)Oc1cc(S(=O)(=O)Nc2n[nH]c(Nc3ccc(C)cc3)n2)c(S)cc1Cl	> 100 µM (inactive)	> 100 µM (inactive)	68.1 µM (inactive)	> 100 µM (inactive)	> 100 µM (inactive)	> 100 µM (inactive)	> 100 µM (inactive)	> 100 µM (inactive)	> 100 µM (inactive)	> 100 µM (inactive)	> 100 µM (inactive)	66.7 µM (inactive)	> 100 µM (inactive)	> 100 µM (inactive)	> 100 µM (inactive)	> 100 µM (inactive)	–	–	–
Clc1ccc(CCNCCNC2(c3cc4ccccc4s3)CCCCC2)cc1Cl	1.81 µM (inactive)	1.81 µM (inactive)	2.31 µM (inactive)	1.74 µM (inactive)	2.01 µM (inactive)	1.84 µM (inactive)	1.78 µM (inactive)	1.45 µM (inactive)	1.84 µM (inactive)	–	1.92 µM (inactive)	2.02 µM (inactive)	1.7 µM (inactive)	1.63 µM (inactive)	1.74 µM (inactive)	1.85 µM (inactive)	1.5 µM (inactive)	1.79 µM (inactive)	1.96 µM (inactive)
CO/C(=N\N=C\c1ccccc1F)c1ccncc1	> 10 µM (inactive)	–	> 10 µM (inactive)	> 10 µM (inactive)	> 10 µM (inactive)	> 10 µM (inactive)	> 10 µM (inactive)	> 10 µM (inactive)	> 10 µM (inactive)	–	> 10 µM (inactive)	> 10 µM (inactive)	> 10 µM (inactive)	> 10 µM (inactive)	–	> 10 µM (inactive)	> 10 µM (inactive)	> 10 µM (inactive)	–
c1ccc(C(CCN2CCCC2)c2ccccn2)cc1 (stereo not given)	> 100 µM (inactive)	> 100 µM (inactive)	> 100 µM (inactive)	> 100 µM (inactive)	> 100 µM (inactive)	> 100 µM (inactive)	> 100 µM (inactive)	–	> 100 µM (inactive)	–	> 100 µM (inactive)	< 0.01 µM (active)	> 100 µM (inactive)	> 100 µM (inactive)	> 100 µM (inactive)	> 100 µM (inactive)	> 100 µM (inactive)	> 100 µM (inactive)	> 100 µM (inactive)
COC1CC(OC(=O)c2ccccc2)C(OC(=O)c2ccccc2)C(C)O1 (stereo not given)	> 100 µM (inactive)	> 100 µM (inactive)	> 100 µM (inactive)	> 100 µM (inactive)	> 100 µM (inactive)	> 100 µM (inactive)	> 100 µM (inactive)	> 100 µM (inactive)	> 100 µM (inactive)	> 100 µM (inactive)	> 100 µM (inactive)	> 100 µM (inactive)	> 100 µM (inactive)	> 100 µM (inactive)	> 100 µM (inactive)	> 100 µM (inactive)	> 100 µM (inactive)	> 100 µM (inactive)	–
O=C(CCN1CCOCC1)Nc1ccc(F)cc1F	> 100 µM (inactive)	> 100 µM (inactive)	> 100 µM (inactive)	> 100 µM (inactive)	> 100 µM (inactive)	> 100 µM (inactive)	> 100 µM (inactive)	> 100 µM (inactive)	> 100 µM (inactive)	> 100 µM (inactive)	> 100 µM (inactive)	> 100 µM (inactive)	> 100 µM (inactive)	> 100 µM (inactive)	> 100 µM (inactive)	> 100 µM (inactive)	–	> 100 µM (inactive)	–
Brc1cccc(/N=N/N2CCCC2)c1	–	> 100 µM (inactive)	48.9 µM (inactive)	77.1 µM (inactive)	> 100 µM (inactive)	> 100 µM (inactive)	67.9 µM (inactive)	> 100 µM (inactive)	> 100 µM (inactive)	> 100 µM (inactive)	> 100 µM (inactive)	27.4 µM (inactive)	> 100 µM (inactive)	80.5 µM (inactive)	> 100 µM (inactive)	56.1 µM (inactive)	–	> 100 µM (inactive)	65.5 µM (inactive)
CC(C)C1OC(/C=C/c2ccccc2)OCC1(C)C (stereo not given)	29.9 µM (inactive)	40.1 µM (inactive)	25.4 µM (inactive)	18.9 µM (inactive)	36.2 µM (inactive)	36.3 µM (inactive)	27.7 µM (inactive)	20.4 µM (inactive)	31.6 µM (inactive)	–	41.4 µM (inactive)	30.1 µM (inactive)	35.1 µM (inactive)	24.9 µM (inactive)	45.7 µM (inactive)	34.8 µM (inactive)	19.6 µM (inactive)	33 µM (inactive)	26.9 µM (inactive)
CN(C)c1ccc2nc3c(C(=O)O)cc(O)c(O)c3[o+]c2c1	> 100 µM (inactive)	92.3 µM (inactive)	22.4 µM (inactive)	33.1 µM (inactive)	21.7 µM (inactive)	23.1 µM (inactive)	16.8 µM (inactive)	13.3 µM (inactive)	41 µM (inactive)	27 µM (inactive)	28.7 µM (inactive)	17.5 µM (inactive)	21.8 µM (inactive)	29.7 µM (inactive)	20 µM (inactive)	28.6 µM (inactive)	–	41.5 µM (inactive)	21.5 µM (inactive)
CC1=C[C@H]([C@H]2C=C(C)C(C(N)=O)=CN2Cc2c(Cl)cccc2Cl)N(Cc2c(Cl)cccc2Cl)C=C1C(N)=O	> 75 µM (inactive)	–	> 75 µM (inactive)	> 75 µM (inactive)	> 75 µM (inactive)	48.9 µM (inactive)	> 75 µM (inactive)	> 75 µM (inactive)	52.7 µM (inactive)	> 75 µM (inactive)	> 75 µM (inactive)	> 75 µM (inactive)	> 75 µM (inactive)	> 75 µM (inactive)	> 75 µM (inactive)	> 75 µM (inactive)	> 75 µM (inactive)	> 75 µM (inactive)	–
Cc1c(C=C(C#N)C#N)c(=O)n(C)c(=O)n1C	> 100 µM (inactive)	> 100 µM (inactive)	> 100 µM (inactive)	> 100 µM (inactive)	> 100 µM (inactive)	> 100 µM (inactive)	> 100 µM (inactive)	> 100 µM (inactive)	> 100 µM (inactive)	> 100 µM (inactive)	> 100 µM (inactive)	32.9 µM (inactive)	> 100 µM (inactive)	> 100 µM (inactive)	> 100 µM (inactive)	> 100 µM (inactive)	–	> 100 µM (inactive)	> 100 µM (inactive)
COc1ccc(N2C(=O)CSC2c2cc(OC)c(OC)c(OC)c2)cc1 (stereo not given)	25.5 µM (inactive)	33.7 µM (inactive)	11.9 µM (inactive)	23.1 µM (inactive)	18.6 µM (inactive)	9.68 µM (inactive)	25.3 µM (inactive)	25.5 µM (inactive)	29.9 µM (inactive)	32.8 µM (inactive)	23.2 µM (inactive)	5.41 µM (inactive)	43.2 µM (inactive)	18.9 µM (inactive)	4.71 µM (inactive)	11.8 µM (inactive)	16.7 µM (inactive)	31.8 µM (inactive)	–
C=CCN1C[C@@H](C)N([C@@H](c2ccc(C(=O)N(CC)CC)cc2)c2cccc(OC)c2)C[C@@H]1C	> 100 µM (inactive)	> 100 µM (inactive)	> 100 µM (inactive)	> 100 µM (inactive)	> 100 µM (inactive)	> 100 µM (inactive)	> 100 µM (inactive)	> 100 µM (inactive)	> 100 µM (inactive)	> 100 µM (inactive)	> 100 µM (inactive)	> 100 µM (inactive)	–	> 100 µM (inactive)	> 100 µM (inactive)	> 100 µM (inactive)	–	> 100 µM (inactive)	–
O=c1oc2ccccc2cc1/C=N/N1C(=S)N(c2ccccc2)C(=N\c2ccccc2)/C1=N/c1ccccc1	> 100 µM (inactive)	> 100 µM (inactive)	> 100 µM (inactive)	–	> 100 µM (inactive)	20.5 µM (inactive)	> 100 µM (inactive)	> 100 µM (inactive)	34.6 µM (inactive)	> 100 µM (inactive)	> 100 µM (inactive)	> 100 µM (inactive)	> 100 µM (inactive)	> 100 µM (inactive)	98.2 µM (inactive)	> 100 µM (inactive)	> 100 µM (inactive)	> 100 µM (inactive)	1.65 µM (inactive)
O=S(=O)(O)c1ccc2c(/N=N/c3cccc4ccccc34)c(O)ccc2c1	> 100 µM (inactive)	> 100 µM (inactive)	> 100 µM (inactive)	> 100 µM (inactive)	> 100 µM (inactive)	> 100 µM (inactive)	> 100 µM (inactive)	> 100 µM (inactive)	> 100 µM (inactive)	–	74.6 µM (inactive)	> 100 µM (inactive)	> 100 µM (inactive)	87.1 µM (inactive)	> 100 µM (inactive)	> 100 µM (inactive)	–	> 100 µM (inactive)	> 100 µM (inactive)
COc1ccc(/C=C(/C#N)C(N)=O)cc1OC	> 100 µM (inactive)	> 100 µM (inactive)	> 100 µM (inactive)	> 100 µM (inactive)	> 100 µM (inactive)	> 100 µM (inactive)	> 100 µM (inactive)	> 100 µM (inactive)	> 100 µM (inactive)	> 100 µM (inactive)	> 100 µM (inactive)	> 100 µM (inactive)	> 100 µM (inactive)	> 100 µM (inactive)	> 100 µM (inactive)	–	–	> 100 µM (inactive)	> 100 µM (inactive)
